Test results from paper PMC4327855 (Science signaling, 2014).

Biological target: T1, TPC1 (Strongylocentrotus purpuratus, UniProt D1J6X7)
T1 sequence (D1J6X7 1-881): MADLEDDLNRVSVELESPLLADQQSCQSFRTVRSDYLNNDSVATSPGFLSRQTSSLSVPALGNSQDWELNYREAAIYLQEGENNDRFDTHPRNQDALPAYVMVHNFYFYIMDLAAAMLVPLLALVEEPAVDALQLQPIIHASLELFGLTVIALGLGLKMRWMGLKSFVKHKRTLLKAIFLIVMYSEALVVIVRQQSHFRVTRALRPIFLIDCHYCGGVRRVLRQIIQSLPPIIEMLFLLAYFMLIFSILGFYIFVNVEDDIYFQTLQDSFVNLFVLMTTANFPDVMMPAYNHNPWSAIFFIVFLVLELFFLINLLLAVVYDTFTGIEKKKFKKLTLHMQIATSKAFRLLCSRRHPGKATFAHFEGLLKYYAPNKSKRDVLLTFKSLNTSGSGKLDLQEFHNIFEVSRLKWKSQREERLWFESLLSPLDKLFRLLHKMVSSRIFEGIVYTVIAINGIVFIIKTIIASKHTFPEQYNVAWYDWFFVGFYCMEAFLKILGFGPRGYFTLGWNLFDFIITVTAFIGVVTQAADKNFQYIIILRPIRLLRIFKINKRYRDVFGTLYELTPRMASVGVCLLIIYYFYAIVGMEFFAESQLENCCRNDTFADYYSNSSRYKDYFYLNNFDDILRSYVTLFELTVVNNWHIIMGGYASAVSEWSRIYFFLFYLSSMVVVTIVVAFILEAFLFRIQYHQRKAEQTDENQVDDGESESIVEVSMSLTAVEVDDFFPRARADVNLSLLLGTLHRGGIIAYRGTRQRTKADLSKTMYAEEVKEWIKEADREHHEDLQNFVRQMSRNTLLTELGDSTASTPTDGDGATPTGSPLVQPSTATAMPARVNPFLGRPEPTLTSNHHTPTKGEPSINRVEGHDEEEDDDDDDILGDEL
Test: inhibition of NAADP-evoked Ca2+ signals
Format: cell-based

SMILES: COC(=O)C1=C(C)NC(C)=C(C(=O)OC)C1c1ccccc1[N+](=O)[O-] [nifedipine]
- IC50: 4 µM
